In ChEMBL document CHEMBL1201862, “PubChem BioAssay data set” (2004):
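Compound exposure: 48 hours, 5 concentrations, 96-well plates. GI50 marks 50% less growth.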 Active and inactive are the calls of the source. Cut-off read from the data, not from the text of the source: active = GI50 up to about 1.1 µM and inactive = higher.

Tests used:
Assay in all cases: NCI-60 cell line screen, 48 h
A549 = test system: A549
ACHN = test system: ACHN
CCRF-CEM = test system: CCRF-CEM
COLO 205 = test system: COLO 205
DU-145 = test system: DU-145
HCC 2998 = test system: HCC 2998
HCT-15 = test system: HCT-15
IGROV-1 = test system: IGROV-1
K562 = test system: K562
LOX IMVI = test system: LOX IMVI
NCI-H522 = test system: NCI-H522
OVCAR-3 = test system: OVCAR-3
OVCAR-5 = test system: OVCAR-5
RPMI-8226 = test system: RPMI-8226
RXF 393 = test system: RXF 393
SK-MEL-5 = test system: SK-MEL-5
SN12C = test system: SN12C
SR = test system: SR
UACC-62 = test system: UACC-62
UO-31 = test system: UO-31

Compound | GI50 (A549) | GI50 (ACHN) | GI50 (CCRF-CEM) | GI50 (COLO 205) | GI50 (DU-145) | GI50 (HCC 2998) | GI50 (HCT-15) | GI50 (IGROV-1) | GI50 (K562) | GI50 (LOX IMVI) | GI50 (NCI-H522) | GI50 (OVCAR-3) | GI50 (OVCAR-5) | GI50 (RPMI-8226) | GI50 (RXF 393) | GI50 (SK-MEL-5) | GI50 (SN12C) | GI50 (SR) | GI50 (UACC-62) | GI50 (UO-31)
NC(=O)c1ccc[n+](C2=C([N-]S(=O)(=O)c3ccccc3)C(=O)c3ccccc3C2=O)c1 | 19.3 µM (inactive) | 13.4 µM (inactive) | 42.6 µM (inactive) | 12.8 µM (inactive) | 19.1 µM (inactive) | 10.3 µM (inactive) | 23.3 µM | 11.8 µM (inactive) | 64.3 µM (inactive) | 12.9 µM (inactive) | 10.9 µM (inactive) | 5.08 µM (inactive) | 19.1 µM (inactive) | 26.2 µM (inactive) | 15.8 µM (inactive) | 5.51 µM (inactive) | 16.9 µM (inactive) | 33.6 µM (inactive) | 17.9 µM (inactive) | 14.5 µM (inactive)
CSc1nc2c(c(=O)[nH]1)N=C(c1ccccc1)CC(c1ccccc1)N2 (centres undefined) | 32.1 µM (inactive) | 25.6 µM (inactive) | 26.1 µM (inactive) | 41.7 µM (inactive) | 30.1 µM (inactive) | 29.3 µM (inactive) |  | 23.4 µM (inactive) | 23.4 µM (inactive) | 24.8 µM (inactive) | 19.2 µM (inactive) | 39 µM (inactive) | 31.3 µM (inactive) | 28.5 µM (inactive) | 34.7 µM (inactive) | 28.1 µM (inactive) | 21.2 µM (inactive) | 21.1 µM (inactive) | 23.6 µM (inactive) | 50.4 µM (inactive)
CC(C)/C(Cl)=N\OC(=O)Nc1cccc(Cl)c1 | 18.4 µM (inactive) | 6.22 µM (inactive) | 1.67 µM (inactive) | 2.08 µM (inactive) | 22.5 µM (inactive) | 17 µM (inactive) | 16.1 µM | 18.6 µM (inactive) | 2.07 µM (inactive) | 3.72 µM (inactive) | 1.66 µM (inactive) | 3.28 µM (inactive) | 13.5 µM (inactive) | 4.45 µM (inactive) | 18.5 µM (inactive) | 13.5 µM (inactive) | 16.1 µM (inactive) | 2.49 µM (inactive) | 20.2 µM (inactive) | 19.1 µM (inactive)
CCOC(=O)c1cc2c3ccn(Cc4ccccc4)c3c3c(C)noc3c2[nH]1 | > 100 µM (inactive) | > 100 µM (inactive) | > 100 µM (inactive) | > 100 µM (inactive) | > 100 µM (inactive) | > 100 µM (inactive) | > 100 µM | > 100 µM (inactive) | > 100 µM (inactive) | > 100 µM (inactive) | > 100 µM (inactive) | > 100 µM (inactive) | > 100 µM (inactive) | > 100 µM (inactive) | > 100 µM (inactive) | > 100 µM (inactive) | > 100 µM (inactive) | > 100 µM (inactive) | > 100 µM (inactive) | > 100 µM (inactive)
Cc1nn(C(=O)c2ccncc2)c2c1C(c1ccccc1O)SC(=N)N2 (centres undefined) | > 10 µM (inactive) | > 10 µM (inactive) | > 10 µM (inactive) | > 10 µM (inactive) | > 10 µM (inactive) | > 10 µM (inactive) | > 10 µM | > 10 µM (inactive) | > 10 µM (inactive) | > 10 µM (inactive) | > 10 µM (inactive) | > 10 µM (inactive) | > 10 µM (inactive) | > 10 µM (inactive) | > 10 µM (inactive) | > 10 µM (inactive) | > 10 µM (inactive) | > 10 µM (inactive) | > 10 µM (inactive) | 
CC(=O)O[C@H]1[C@@H](OC2CCCC2(c2ccccc2)c2ccccc2)O[N+]([O-])=C[C@@H]1c1ccccc1 (some centres undefined) | 9.33 µM (inactive) | 5.07 µM (inactive) | 3.19 µM (inactive) | 14.6 µM (inactive) | 5.75 µM (inactive) | 10.4 µM (inactive) | 4.75 µM | 2.79 µM (inactive) | 4.41 µM (inactive) | 2.1 µM (inactive) | 1.26 µM (inactive) | 8.87 µM (inactive) | 17.6 µM (inactive) | 2.01 µM (inactive) | 2.82 µM (inactive) | 8.02 µM (inactive) | 4.66 µM (inactive) | 2.4 µM (inactive) | 4.66 µM (inactive) | 10.7 µM (inactive)
COc1ccc(/C=N/N=C(\N)NO)c(OC)c1OC | 13.3 µM (inactive) | 21.2 µM (inactive) | 20 µM (inactive) | 19.1 µM (inactive) | 12.8 µM (inactive) | 17.2 µM (inactive) | 35.2 µM | 36.6 µM (inactive) | 23.2 µM (inactive) | 23.4 µM (inactive) | 36.6 µM (inactive) | 16.4 µM (inactive) | 23.4 µM (inactive) | 31.6 µM (inactive) | 30.1 µM (inactive) | 24.6 µM (inactive) | 34.4 µM (inactive) | 25 µM (inactive) | 20.6 µM (inactive) | 20.8 µM (inactive)
N#CC1=C(N)N2C(=O)/C(=C/c3ccccc3O)N=C2S1 | > 100 µM (inactive) | > 100 µM (inactive) | 26.4 µM (inactive) | > 100 µM (inactive) | > 100 µM (inactive) | 92.9 µM (inactive) | 33.5 µM | 29.8 µM (inactive) | 26.1 µM (inactive) | 53.2 µM (inactive) | 47.8 µM (inactive) | 66.2 µM (inactive) | 98.9 µM (inactive) | 30.6 µM (inactive) | 93.3 µM (inactive) | 80 µM (inactive) | > 100 µM (inactive) | 23.6 µM (inactive) |  | 94.6 µM (inactive)
CSC(=S)Nc1cc(C)ccn1 | > 100 µM (inactive) | 70 µM (inactive) | > 100 µM (inactive) | 50.8 µM (inactive) | > 100 µM (inactive) | > 100 µM (inactive) | > 100 µM | 20.8 µM (inactive) | 62.5 µM (inactive) | > 100 µM (inactive) | 40.7 µM (inactive) | 40.6 µM (inactive) | > 100 µM (inactive) | 97.7 µM (inactive) | > 100 µM (inactive) | 16.7 µM (inactive) | 57.7 µM (inactive) | 78.2 µM (inactive) | > 100 µM (inactive) | > 100 µM (inactive)
CC(=O)NC(Cc1ccc(OP(=O)(OCc2ccc([N+](=O)[O-])o2)N(C)CCCCCl)cc1)C(=O)NC(C)c1ccc(OCC2CCCCC2)c(C(N)=O)c1 (centres undefined) | 4.12 µM (inactive) | 8.15 µM (inactive) | 1.33 µM (inactive) | 1.87 µM (inactive) | 3.74 µM (inactive) | 1.82 µM (inactive) | 20.4 µM | 2.7 µM (inactive) | 3.91 µM (inactive) | 1.97 µM (inactive) | 3.73 µM (inactive) | 2.27 µM (inactive) | 7.35 µM (inactive) | 1.72 µM (inactive) | 2.02 µM (inactive) | 1.61 µM (inactive) | 2.34 µM (inactive) | 2.21 µM (inactive) | 2.31 µM (inactive) | 17.3 µM (inactive)
COc1ccc(/C=C2\N/C(=N/N)N=C2Cl)cc1 | > 100 µM (inactive) | > 100 µM (inactive) | > 100 µM (inactive) | > 100 µM (inactive) | > 100 µM (inactive) | > 100 µM (inactive) | > 100 µM | > 100 µM (inactive) | > 100 µM (inactive) | > 100 µM (inactive) | > 100 µM (inactive) | > 100 µM (inactive) | > 100 µM (inactive) | > 100 µM (inactive) | > 100 µM (inactive) | > 100 µM (inactive) | > 100 µM (inactive) | > 100 µM (inactive) |  | > 100 µM (inactive)
COc1ccc(CC(C#N)c2cc(OC)c(OC)c(OC)c2)cc1 (centres undefined) | 0.0525 µM (active) | 0.796 µM (active) | 0.0668 µM (active) | 0.029 µM (active) | 0.0422 µM (active) | < 0.0416 µM (active) | 0.0276 µM | 0.0809 µM (active) | 0.0248 µM (active) | 0.0328 µM (active) | 0.0267 µM (active) | 0.0279 µM (active) | 6.27 µM (inactive) | 0.0741 µM (active) | 0.0575 µM (active) | 0.0266 µM (active) | 0.135 µM (active) | 0.0206 µM (active) | 0.0275 µM (active) | 0.442 µM (active)
C=C1C(=O)O[C@@H]2/C=C(/C)[C@@H](OC(C)=O)C[C@@H](O)/C(C)=C\[C@@H](OC(=O)[C@]3(C)O[C@@H]3C)[C@@H]12 | 31.2 µM (inactive) | 11.8 µM (inactive) | 2.38 µM (inactive) | 6.89 µM (inactive) | 14.6 µM (inactive) | 18.2 µM (inactive) | 12.9 µM | 16.2 µM (inactive) | 3.34 µM (inactive) | 7.26 µM (inactive) | 1.28 µM (inactive) | 11.6 µM (inactive) | 18.6 µM (inactive) | 5.78 µM (inactive) | 15.5 µM (inactive) | 11.4 µM (inactive) | 12.3 µM (inactive) | 4.6 µM (inactive) | 16.1 µM (inactive) | 
CN(C)Cc1cc(C(=O)/C=C/c2ccc(Cl)cc2Cl)cc(CN(C)C)c1O | 2.89 µM (inactive) | 2.06 µM (inactive) | 2.16 µM (inactive) | 1.44 µM (inactive) | 4.73 µM (inactive) | 5.89 µM (inactive) | 3.17 µM | 2.72 µM (inactive) | 1.48 µM (inactive) | 1.2 µM (inactive) | 2.56 µM (inactive) | 2.99 µM (inactive) | 15.2 µM (inactive) | 3.85 µM (inactive) | 2.51 µM (inactive) | 1.96 µM (inactive) | 1.78 µM (inactive) | 4.03 µM (inactive) |  | 2.07 µM (inactive)
